Measurements reported in EP0171362A1, “Aminoalkyl penem compounds” (priority 1984, dated 1986).
Converted amounts (≈) assume the structure as drawn.

What was measured:
Format in all cases: cell-based
[1] = test system: Klebsiella pneumoniae 327; assay: In vitro antibiotic activity (MIC)
Serratia marcescens 344 = assay: In vitro antibiotic activity (MIC)
[2] = test system: Enterobacter cloacae P 99; assay: In vitro antibiotic activity (MIC); details: P99, read-out: in vitro MIC
[3] = test system: Neisseria meningitidis 1316; assay: In vitro antibiotic activity (MIC)
[4] = test system: Pseudomonas aeruginosa ATCC 12055; assay: In vitro antibiotic activity (MIC); details: ATCC12055
[5] = test system: Staphylococcus aureus 2999i+p+; assay: In vitro antibiotic activity (MIC)
[6] = test system: Neisseria gonorrhoeae 1317/4; assay: In vitro antibiotic activity (MIC)
[7] = test system: Streptococcus pyogenes Aronson 1129; assay: In vitro antibiotic activity (MIC); details: ARONSON1129
[8] = test system: Staphylococcus aureus 10 B; assay: In vitro antibiotic activity (MIC)
[9] = test system: Haemophilus influenzae 24; assay: In vitro antibiotic activity (MIC)
Escherichia coli UB 1005 = assay: In vitro antibiotic activity (MIC); details: UB1005
Description: Ueberraschenderweise weisen die erfindungsgemässen Penem-Verbindungen gegenüber strukturverwandten und vorbekannten Penemen eine überlegene Wirksamkeit auf. Dies wird deutlich beim Vergleich der MIC-Daten (minimum inhibitory concentrations, in vitro gemessen) von (5R,6S)-2-[(2R,S)-2-Amino-but-1-yl)-6-[(lR)-1-hydroxyäthyl]-2-penem-3-carbonsäure (Verbindung A) mit bekannten homologen Penemen, die in Position 2 des Penem-Ringes einen 4-Aminobutyl- bzw. 1-Aminobutyl-Substituenten tragen, nämlich (5R,6S)-2-(4-Aminobutyl)-6-hydroxymethyl-2-penem-3-carbonsäure (Europäische Patentanmeldung Nr. 82113, Verbindung B) und (5R,6S)-2-(1-Aminobutyl)-6-hydroxymethyl-2-penem-3-carbonsäure (Europäische Patentanmeldung Nr. 125 208, Verbindung C). Die Ergebnisse sind in der folgenden Tabelle 1 zusammengefasst.

[10] = test system: Pseudomonas aeruginosa K 799/61; assay: In vitro antibiotic activity (MIC); details: K799/61, read-out: in vitro MIC
Escherichia coli 205 = assay: In vitro antibiotic activity (MIC)
Escherichia coli DC 2 = assay: In vitro antibiotic activity (MIC); details: DC2
Escherichia coli B-1385 = assay: In vitro antibiotic activity (MIC); details: B1385
[11] = test system: Enterobacter cloacae ATCC 13074; assay: In vitro antibiotic activity (MIC); details: ATCC13074
Escherichia coli 2018 = assay: In vitro antibiotic activity (MIC)
[12] = test system: Staphylococcus aureus Wood 46; assay: In vitro antibiotic activity (MIC); details: WOOD46
[13] = test system: Pseudomonas aeruginosa 143738R; assay: In vitro antibiotic activity (MIC)
Proteus morganii 2359 = assay: In vitro antibiotic activity (MIC); details: Morganella morganii
[14] = test system: Escherichia coli 205 R + TEM; assay: In vitro antibiotic activity (MIC); details: read-out: in vitro MIC
Escherichia coli 16 = assay: In vitro antibiotic activity (MIC)
[15] = test system: Clostridium perfringens 194 AN; assay: microbe, parasite or virus in culture; details: read-out: in vitro MIC
Proteus mirabilis 774 = assay: In vitro antibiotic activity (MIC)
[16] = test system: Bacteroides fragilis L 01; assay: In vitro antibiotic activity (MIC); details: L01
[17] = test system: Streptococcus pneumoniae III/84; assay: In vitro antibiotic activity (MIC)
[18] = test system: Staphylococcus aureus A 124; assay: In vitro antibiotic activity (MIC); details: A124

Work on `CCC(N)CC1=C(C(=O)O)N2C(=O)[C@H]([C@@H](C)O)[C@H]2S1` (stereo partly drawn) [Verbindung A, (5R,6S)-2-[(2R,S)-2-Amino-but-1-yl)-6-[(lR)-1-hydroxyäthyl]-2-penem-3-carbonsäure] yielded an MIC [1] of 1 µg/mL (≈ 3.49 µM), an MIC (Serratia marcescens 344) of 8 µg/mL (≈ 27.9 µM) and an MIC [2] of 0.5 µg/mL (≈ 1.75 µM). For the same molecule, the MIC [3] was 1 µg/mL (≈ 3.49 µM), the MIC [4] was 32 µg/mL (≈ 112 µM) and the MIC [5] was 0.05 µg/mL (≈ 0.175 µM). The MIC [6] was 0.5 µg/mL (≈ 1.75 µM), the MIC [7] was 0.05 µg/mL (≈ 0.175 µM) and the MIC [8] was 0.02 µg/mL (≈ 0.0698 µM). The MIC [9] was 16 µg/mL (≈ 55.9 µM), the MIC (Escherichia coli UB 1005) was 2 µg/mL (≈ 6.98 µM) and the MIC [10] was 4 µg/mL (≈ 14 µM). The MIC (Escherichia coli 205) was 1 µg/mL (≈ 3.49 µM), the MIC (Escherichia coli DC 2) was 16 µg/mL (≈ 55.9 µM) and the MIC (Escherichia coli B-1385) was 1 µg/mL (≈ 3.49 µM). For the same molecule, the MIC [11] was 2 µg/mL (≈ 6.98 µM), the MIC (Escherichia coli 2018) was 0.5 µg/mL (≈ 1.75 µM) and the MIC [12] was 0.02 µg/mL (≈ 0.0698 µM). The MIC [13] was 64 µg/mL (≈ 224 µM), the MIC (Proteus morganii 2359) was 8 µg/mL (≈ 27.9 µM) and the MIC [14] was 2 µg/mL (≈ 6.98 µM). It also gave an MIC (Escherichia coli 16) of 1 µg/mL (≈ 3.49 µM), an MIC [15] of 0.2 µg/mL (≈ 0.698 µM) and an MIC (Proteus mirabilis 774) of 2 µg/mL (≈ 6.98 µM). The MIC [16] was 0.5 µg/mL (≈ 1.75 µM), the MIC [17] was 0.05 µg/mL (≈ 0.175 µM) and the MIC [18] was 0.1 µg/mL (≈ 0.349 µM).

Work on `NCCCCC1=C(C(=O)O)N2C(=O)[C@H](CO)[C@H]2S1` [Verbindung B, (5R,6S)-2-(4-Aminobutyl)-6-hydroxymethyl-2-penem-3-carbonsäure] yielded an MIC [1] of 4 µg/mL (≈ 14.7 µM), an MIC (Serratia marcescens 344) of 16 µg/mL (≈ 58.8 µM) and an MIC [2] of 4 µg/mL (≈ 14.7 µM). For the same molecule, the MIC [4] was 8 µg/mL (≈ 29.4 µM), the MIC [5] was 0.5 µg/mL (≈ 1.84 µM) and the MIC [7] was 0.5 µg/mL (≈ 1.84 µM). The MIC [8] was 0.5 µg/mL (≈ 1.84 µM), the MIC (Escherichia coli UB 1005) was 4 µg/mL (≈ 14.7 µM) and the MIC [10] was 4 µg/mL (≈ 14.7 µM). For the same molecule, the MIC (Escherichia coli 205) was 4 µg/mL (≈ 14.7 µM), the MIC (Escherichia coli DC 2) was 8 µg/mL (≈ 29.4 µM) and the MIC [11] was 16 µg/mL (≈ 58.8 µM). The MIC (Proteus morganii 2359) was 16 µg/mL (≈ 58.8 µM), the MIC [14] was 8 µg/mL (≈ 29.4 µM) and the MIC (Escherichia coli 16) was 4 µg/mL (≈ 14.7 µM). For the same molecule, the MIC [15] was 4 µg/mL (≈ 14.7 µM), the MIC (Proteus mirabilis 774) was 16 µg/mL (≈ 58.8 µM) and the MIC [16] was 0.5 µg/mL (≈ 1.84 µM). For the same molecule, the MIC [17] was 0.5 µg/mL (≈ 1.84 µM).

Molecule `CCCC(N)C1=C(C(=O)O)N2C(=O)[C@H](CO)[C@H]2S1` (stereo partly drawn) [Verbindung C, (5R,6S)-2-(1-Aminobutyl)-6-hydroxymethyl-2-penem-3-carbonsäure] has an MIC [1] of 32 µg/mL (≈ 118 µM), an MIC (Serratia marcescens 344) greater than 64 µg/mL and an MIC [2] of 64 µg/mL (≈ 235 µM). The MIC [3] was 1 µg/mL (≈ 3.67 µM), the MIC [4] was greater than 64 µg/mL and the MIC [5] was 0.05 µg/mL (≈ 0.184 µM). It also gave an MIC [6] of 2 µg/mL (≈ 7.34 µM), an MIC [7] of 1 µg/mL (≈ 3.67 µM) and an MIC [8] of 0.05 µg/mL (≈ 0.184 µM). For the same molecule, the MIC [9] was 32 µg/mL (≈ 118 µM), the MIC (Escherichia coli UB 1005) was 64 µg/mL (≈ 235 µM) and the MIC [10] was 64 µg/mL (≈ 235 µM). It also gave an MIC (Escherichia coli 205) of 64 µg/mL (≈ 235 µM), an MIC (Escherichia coli DC 2) of 64 µg/mL (≈ 235 µM) and an MIC (Escherichia coli B-1385) of 64 µg/mL (≈ 235 µM). It also gave an MIC [11] greater than 64 µg/mL, an MIC (Escherichia coli 2018) of 32 µg/mL (≈ 118 µM) and an MIC [12] of 0.05 µg/mL (≈ 0.184 µM). The MIC [13] was greater than 64 µg/mL, the MIC (Proteus morganii 2359) was greater than 64 µg/mL and the MIC [14] was 64 µg/mL (≈ 235 µM). The MIC (Escherichia coli 16) was 64 µg/mL (≈ 235 µM), the MIC [15] was 64 µg/mL (≈ 235 µM) and the MIC (Proteus mirabilis 774) was greater than 64 µg/mL. It also gave an MIC [16] of 16 µg/mL (≈ 58.8 µM), an MIC [17] of 0.05 µg/mL (≈ 0.184 µM) and an MIC [18] of 0.5 µg/mL (≈ 1.84 µM).
